Test results from patent EP0032564A1, “Pharmaceutical use of caroverine and/or salts of caroverine, as well as salts of caroverine with xanthine acid remainders and nicotinic acid remainder” (MEDICHEMIE AG, priority 1979, dated 1981).

Key:
[1] = tested on: glatten Coronar-Muskulatur; test: k-Strophanthin-induced tone of pig coronary smooth muscle; set-up: species or system Schwein; conditions: higher concentration of k-Strophanthin, partial restitution by raised extracellular Ca++ (Fig. 15)
Description: Teilweise Restitution des Coronartonus durch Steigerung der extra-cellulären Ca^++-Konzentration.

[2] = tested on: K^+-Kontraktur isolierter Coronararterienstreifen; test: K+ contracture of isolated pig coronary artery strips; set-up: species or system Schwein
Description: Partielle Restitution der mechanischen Spannungsentwicklung durch Extra-Calcium.

[3] = tested on: Ca^++-Einstrom; test: Isolated guinea pig papillary muscle: intracellular action potentials and isometric mechanograms; set-up: species or system Meerschweinchen
Description: Die Aktionspotentiale […] an ein und derselben Myocardfaser gewonnen. Die einzelnen Konzentrationen kamen jeweils für die Dauer von 40 Minuten zur Anwendung.

[4] = tested on: isolierte, nach Langendorff perfundierte Meerschweinchenherz; test: Isolated Langendorff-perfused guinea pig heart: coronary flow, contraction amplitude, heart rate; set-up: species or system Meerschweinchen
Description: Meerschweinchen wurden durch Genickschlag getötet, der Thorax eröffnet, der Herzbeutel aufgeschnitten, die Aorta mit einem Faden angeschlungen und in der pars ascendens angeschnitten. Nach Einbinden einer Glaskanüle in die Aorta wurde die aorta pulmonalis eröffnet und anschliessend das Coronargefässsystem durch die Aortenkanüle unter leichten Druck mit einer Spitze durchgespült. Nach Dulchirennung aller anhängenden Gefässe wurde das Herz an der Aortenkanüle in die feuchte Kammer einer modifizierten Langendorff-Apparatur gehängt und mit carbogengesättigter Tyrodelösung von 37^uC mit einem Druck von 55 cm H20 perfundiert. An der Herzspitze wurde eine Serre fine angebracht, die über einen Faden mit einem zweiarmigen Hebel verbunden war, der die Kontraktionsamplitude auf einem Russkymographen aufzeichnete. Alle Herzen waren mit 4 g belastet. Der Schreibhebel passierte bei seinen Ausschlägen die Lichtschranke einer Fotozelle. Dadurch konnte die Herzfrequenz über einen Totalisator (nach FLEISCH, Firma B. Braun, Melsungen) registriert werden. Die aus dem rechten Vorhof frei abfliessende Perfusionslösung tropfte auf einen elektrischen Kontakt. Die Tropfenzahl wurde mittels eines zweiten Totalisators aufgezeichnet,und nach Eichung in ml/min der Coronardurchfluss bestimmt.
Nach Fertigstellung der Präparate wurde bis zum Versuchsbeginn 45 Min. gewartet. Nach dieser Zeit hatten Kontaktionsamplitude, Frequenz und Coronardurchblutung ein konstantes Niveau erreicht.
Caroverin wurde in Einzeldosen von 1, 10, 100 sowie 1000 ug verabreicht. Theophyllin wurde in Dosen von 10, 100 sowie 1000 ug gegeben. In allen Versuchen wurden Caroverin und Theophyllin abwechselnd verabreicht, wobei jeweils eine Zeitspanne von 5 Min. zwischen zwei Einzelinjektionen lag. Alle Injektionsvolumina betrugen 0.1 ml.
Die Effekte der Substanzen wurden ermittelt,indem in jedem Versuch bei jeder Einzeldosis die maximalen Zu- bzw. Abnahmen der entsprechenden Parameter gegenüber dem jeweiligen Ausganswert bestimmt und diese Einzeleffekte gemittelt wurden. Statistische Signifikanzberechnungen erfolgten nach dem t-Test (student's-Test).

CCN(CC)CCn1c(=O)c(Cc2ccc(OC)cc2)nc2ccccc21 [Caroverin, 1-(2-diäthylaminoäthyl)-3-(p-methoxybenzyl)-1,2-dihydroquinoxalon-2]
tonussteigernde Effekte von k-Strophanthin [1]: Neutralisation der tonussteigernden Effekte | inhibition at 0.25 µg/mL ([2]; Sus scrofa, pig, 0,25 mg Caroverin/l (Fig. 13 and 14), read-out: elektromechanische Entkoppelung K^+-depolarisierter Coronararterienstreifen): ~50% | K^+-Kontraktur isolierter Coronararterienstreifen ([2]; pig, rising concentrations 0,05, 0,1 and 0,5 mg/l, partial restitution by extra calcium (Fig. 13)): Hemmungen der K^+-Kontraktur | K^+-Kontraktur isolierter Coronararterien-Streifen ([2]; pig, rising concentrations 1,0, 2,0 and 5,0 mg/l, partial restitution by extra calcium at 1 mg/l (Fig. 14)): Hemmung der K^+-Kontraktur | elektrische Parameter Ca^++-getragener Aktionspotentiale (AP-Amplitude, max. Aufstrichsteilheit, AP-Dauer) und zugehörige Mechanogramme ([3]; about the same concentration range (10 mg/l)): hemmt | Blockade des Ca^++-Einstroms während der Erregung ([3]; electrically stimulated isolated guinea pig papillary muscle, 10 mg Caroverin/l (Fig. 12)): ~50% | transmembranäre Na- und K^+-Fluxe ([3]; isolated guinea pig papillary muscle, 10 mg Caroverin/l): ohne die transmembranären Na - und K^+-Fluxe zu reduzieren | Herzfrequenz ([4]; 100 µg, in all experiments): langanhaltenden frequenzsenkenden Effekt | Kontraktionsamplitude ([4]; 100 µg, p < 0.01): verminderte die Kontraktionsamplitude signifikant | Coronardurchfluss ([4]; single doses Caroverin 1-1000 ug, Theophyllin 10-1000 ug, 1000 Theophyllin about equal to 100 Caroverin): dosisabhängige, coronardurchflusssteigernde Wirkung
